Data: ChEMBL document CHEMBL1140359, “Solid-phase synthesis and anti-infective activity of a combinatorial library based on the natural product anisomycin” (Bioorg Med Chem Lett, 2005)
In brackets after ≈: the same amount, converted by molar mass.

Columns and labels:
Candida albicans [1] = experiment: Percent inhibition against RG-1 mutant strain of Candida albicans at 15.5 uM; format: functional
Candida albicans [2] = experiment: Percent inhibition against efflux-deficient strain of Candida albicans at 15.5 uM; format: functional
HEK293 = experiment: Inhibitory concentration required to produce cytotoxicity against HEK293 cells; format: functional, cell-based; details: Homo sapiens
Staphylococcus aureus [3] = experiment: Percent inhibition against MraY/MurG in Staphylococcus aureus cell walls at 25 uM; format: functional
Staphylococcus aureus [4] = experiment: Percent inhibition against MurPath in Staphylococcus aureus cell walls at the concentration of 25 uM; format: functional
Staphylococcus aureus [5] = experiment: Minimum inhibitory concentration against Staphylococcus aureus; format: functional

| SMILES | inhibition at 15.5 µM (Candida albicans [1]) [%] | inhibition at 15.5 µM (Candida albicans [2]) [%] | IC50 (HEK293) [µM] | inhibition at 25 µM (Staphylococcus aureus [3]) [%] | inhibition at 25 µM (Staphylococcus aureus [4]) [%] | MIC (Staphylococcus aureus [5]) [µg/mL] |
| --- | --- | --- | --- | --- | --- | --- |
| CCCOC(=O)N1C[C@H](O)[C@@H](OC(=O)NCc2ccccc2-c2ccccc2)[C@H]1Cc1ccc(OC)cc1 | 10 | 96 | 9 |  |  |  |
| COc1ccc(C[C@@H]2[C@H](OC(=O)NCc3ccc(F)cc3)[C@@H](O)CN2C(=O)c2cc(C(F)(F)F)cc(C(F)(F)F)c2)cc1 | < 5 | 87 | 8 |  |  |  |
| COc1ccc(C[C@@H]2[C@H](OC(=O)NCc3ccccc3F)[C@@H](O)CN2C(=O)c2cc(C(F)(F)F)cc(C(F)(F)F)c2)cc1 | < 5 | 87 | 10 |  |  |  |
| COc1ccc(C[C@@H]2[C@H](OC(=O)N[C@@H]3CCN(Cc4ccccc4)C3)[C@@H](O)CN2C(=O)Nc2ccc(-c3ccccc3)cc2)cc1 |  |  | 2 | 20 | < 5 | 16 (≈ 25.8 µM) |
| COc1ccc(C[C@@H]2[C@H](OC(=O)NC3CCN(Cc4ccccc4)CC3)[C@@H](O)CN2C(=O)c2cc(-c3ccc(Cl)cc3)oc2C(F)(F)F)cc1 |  |  | 8 | < 5 | < 5 | 16 (≈ 22.5 µM) |
| CCOC(=O)N1C[C@H](O)[C@@H](OC(=O)NCc2ccccc2-c2ccccc2)[C@H]1Cc1ccc(OC)cc1 | 14 | 83 | 22 |  |  |  |
| COc1ccc(C[C@@H]2[C@H](OC(=O)NCc3ccccc3)[C@@H](O)CN2C(=O)c2cc(C(F)(F)F)cc(C(F)(F)F)c2)cc1 | 8 | 87 | 16 |  |  |  |
| COc1ccc(C[C@@H]2[C@H](OC(=O)NCc3ccccc3-c3ccccc3)[C@@H](O)CN2C(=O)OCC(C)C)cc1 | < 5 | 82 | 11 |  |  |  |
| COc1ccc(C[C@H]2NC[C@H](O)[C@H]2OC(C)=O)cc1 [ANISOMYCIN] |  | > 99 | 0.02 |  |  | > 32 |
| COc1ccc(C[C@@H]2[C@H](OC(=O)N3CCN(C)CC3)[C@@H](O)CN2C(=O)c2cc(-c3ccc(Cl)cc3)oc2C(F)(F)F)cc1 |  |  | 10 | 10 | < 5 | 32 (≈ 51.4 µM) |
